Data on 1 molecule can be found in US20200309872A1, “APPARATUS AND METHOD OF AIR-SUSPENDED BIOFABRICATION OF TISSUE-ENGINEERED ORGAN CONSTRUCTS AND CONGLOMERATES OF SPHEROIDS, CELLS AND OTHER BIOLOGICAL OBJECTS BY USING MAGNETIC FIELD” (priority 2019, published 2020).

What all share (type): cell-based
For data set [1], the system named is chondrospheres from primary sheep chondrocytes. As to the kind of experiment: Histological analysis on semi-thin sections of tissue spheroids (toluidine blue). The protocol:
Tissue spheroids were fixed with 2.5% glutaraldehyde/PBS and then treated with 1% osmium tetraoxide/PBS. The samples were dehydrated by soaking in a series of solutions of increasing concentrations of ethanol, stained with 1% uranyl acetate/70% ethanol and finally embedded to araldite-epon mixture. Semi-thin sections were prepared on a LKB-III ultratome (Sweden), stained with 1% toluidine blue and then examined using a light microscope (Leica DM 2500, Germany) equipped with a digital camera (Leica DFC 290, Germany).
A histological analysis on semi-thin sections of 3-day-old tissue spheroids was performed in order to estimate possible toxic effects and to determine an optimal nontoxic Gd3+ concentration (FIG. 3a). […] Scale bar—100μm.

Data set [2] shares this test system. Put plainly: Tissue spheroid viability, CellTiter-Glo 3D (cytoplasmic ATP luminescence). The following applies: 24 hours of incubation. How it is done:
The viability of tissue spheroids was assessed using the CellTiter-Glo 3D kit according to the manufacturer protocol. Briefly, 3-day-old tissue spheroids with a starting cell number of 8000 cells were placed in 0, 50 and 250 mM Gd3+ concentrations for 24 hours. Then CellTiter-Glo 3D kit was added and luminescence was recorded after 30 min incubation using VICTOR X3 Multilabel Plate Reader (Perkin Elmer, USA).
(§1) The viability of cells within tissue spheroids was analyzed by measuring the luminescent signal generated by luciferin-luciferase interconnection as a function of cytoplasmic ATP concentration. […] The highly statistically significant difference (p<0.0005) in cell density corresponded to 85% in 50 mM Gd3+ solution compared to 100% in 0 mM Gd3+ solution, while the cell density at 250mM Gd3+ concentration was 40% (FIG. 3c).
For orientation: ATP-based viability assays read luminescence as a measure of living cells.

For data set [3] the test system is unchanged. Put plainly: Estimation of spheroid cell density by cell counting on semi-thin sections. The protocol: Spheroid cell density was estimated by analysis of semi-thin sections of tissue spheroids using Image J 1.48v software (NIH, Bethesda, Md., USA).
as §1

For data set [4] the test system is unchanged. Put plainly: Mechanical testing of tissue spheroids (parallel-plate compression, Microsquisher). The following applies: for elastic modulus of spheroids: 24 hours, 0 mM control 2.91±0.15 kPa. The protocol:
The mechanical properties of tissue spheroids were measured by a micro-scale parallel-plate compression testing system Microsquisher (CellScale, Canada) with associated SquisherJoy software. Tissue spheroids with a starting cell number of 8000 cells were formed using Corning spheroid microplates. They were cultured 3 days and then placed in 0, 50 and 18 250 mM Gd3+ concentrations for 24 hours prior to mechanical characterization. For mechanical testing spheroids were placed in a PBS-filled bath at 37° C. and compressed to 50% deformation in 20 sec. The microbeams with diameters 152.4 μm (recommended max force […]) and 304.8 μm (recommended max force […]) were employed depending on the stiffness and sensitivity required to measure tissue spheroids from different cell types. The force-displacement data obtained from the compression test were converted to stress-strain curves and the lower portion of the curve (0-20% strain) was used to obtain a linear regression line and estimate the Young's modulus. In each group eight samples of spheroids were measured.
The influence of gadolinium Gd3+ on mechanical properties of tissue spheroids was estimated by tensiometry using parallel plates modification. […] The values of elastic modulus of spheroids in 0 and 50 mM Gd3+ solutions were 2.91±0.15 kPa and 18 2.95±0.1 kPa, correspondingly. […] This observation can be explained by low viability of tissue spheroids in 250 mM Gd3+ solution.
The sharp rise of the curve in the area of high strain values is associated with an increase of the tissue spheroid cross section. […] The stress-strain curve changes practically linearly before this strain; in this section we calculated the Young's modulus.

For data set [5] the test system is unchanged. As to the kind of experiment: Spheroid fusion assay (spheroid doublets). How it is done: Spheroid fusion assay was performed using Corning spheroid microplates (Corning, cat.# 4520). Pairs of 3-day-old tissue spheroids with a starting cell number of 8000 cells were placed in contact in 0, 50 and 250 mM Gd3+ concentrations and incubated for 7 days. Bright-field images of spheroid doublets were obtained at points 0 h, 4 h, 6 h, 1 day, 2 days, 3 days, 4 days and 7 days using Nikon Eclipse Ti-S microscope. Contact length, intersphere angle and doublet length were measured using Image J 1.48v software (NIH, Bethesda, Md., USA) and plotted as a function of time using GraphPad Prism software (GraphPad Software, Inc., La Jolla, Calif.). Doublet length (FIG. 5) was normalized to initial doublet length. Measurements for each parameter were reported as mean ±S.E.M.
To investigate the fusion of tissue spheroids at different Gd3+ concentrations, the pairs of spheroids were placed in contact with each other in the same well of low adhesion microplate and allowed to fuse for 7 days. The kinetics of tissue spheroid fusion was monitored and analyzed daily at bright-field under inverted microscope. Contact length, intersphere angle and doublet length were measured. […] Spheroid doublet in 0 mM Gd3+ solution shortened faster than spheroid doublet in 50 mM Gd3+ solution.

Data set [6] shares this test system. Put plainly: Fusion of 30 chondrospheres into a microtissue construct in non-adhesive microplate. How it is done: To check the possibility of microtissue construct biofabrication at different concentrations of Gd3+, 30 chondrospheres were placed in the same well of non-adhesive microplate and allowed fusion for 48 hours (FIG. 5c). […] Scale bar −500 μm.

Turning to `CNC(=O)CN(CCN(CCN(CC(=O)[O-])CC(=O)NC)CC(=O)[O-])CC(=O)[O-].[Gd+3]` [Gd3+, Gadodiamide], the “cell density (histology, qualitative)” value is “cell density did not change” in data set [1] (50 mM Gd3+ solution); “cell density dramatically reduced” in data set [1] (250 mM Gd3+, cell death and apoptosis, pycnotic nuclei, extracellular debris). Further, the cytoplasm staining result in data set [1] (50 mM Gd3+ solution) is on record as “slightly reduced”. In data set [1] (250 mM Gd3+, 3-day-old spheroids, toluidine blue staining), the “toxic effect on chondrospheres morphology” value is recorded as “severe toxic effect”. In addition, the “viability of tissue spheroids” value is “remained viable” in data set [2] (50 mM Gd3+) and “significant toxic effect” in data set [2] (250 mM Gd3+). Further, the “cell density compared to 100% in 0 mM Gd3+ solution” value in data set [3] (50 mM Gd3+ solution) is listed as 85%; in data set [3] (250 mM Gd3+) it was 40%. In addition, the “effect on tissue spheroids Young's modulus” value in data set [4] (50 mM Gd3+ in the growth medium) is “does not affect”. In addition, the “elastic modulus of spheroids” value in data set [4] (50 mM Gd3+) is on record as 2.95±0.1 kPa; in data set [4] (250 mM Gd3+), 0.14±0.05 kPa. For the same molecule, the “decrease of Young's modulus” value in data set [4] (250 mM Gd3+) is roughly 93%. Besides, the “fusion of spheroid pair (contact length, intersphere angle, doublet length)” value in data set [5] (50 mM Gd3+, up to 7 days) was “contact lengths and intersphere angles increased as a function of time and doublet lengths shortened gradually”. In addition, the cytotoxicity result in data set [5] (250 mM Gd3+) is recorded as “high cytotoxicity”. Besides, the “fusion of spheroid pair” value in data set [5] (250 mM Gd3+, up to 7 days) is “continued to fuse during first 24 hours and then no further progressive aggregation was observed”. This molecule also came in with an intersphere angle in data set [5] (seventh day of incubation, follows the 0 and 50 mM Gd3+ results, concentration not restated, indicates complete fusion) of 179 °. The “construct formation from 30 chondrospheres” value is reported as “formation of compact constructs was observed” in data set [6] (50 mM Gd3+, 2 days of incubation) and “no constructs were formed” in data set [6] (250 mM Gd3+, 48 hours).
